Tested on: rabbit patellar tendon specimen
Assay: post-denaturation tension test (stiffness) of heat-contracted tendon specimens treated with cross-linking agent
Parameters: species or system New Zealand rabbit
Conditions: FIG. 7; for stiffness increase when compared to a control without the cross-linking: then 0.1% glutaraldehyde for 15 minutes
Protocol: The achieve the above objectives, the present invention provides an in vitro testing system for developing procedures for treating joint instability problems and loose skin problems. In particular, the testing system performs a tensile test, which is a test wherein a constant rate of elongation is applied on the specimen and the resultant load is measured by a load cell; a viscoelasticity test, which is a test to determine the viscoelastic properties of the specimen; and, calculates stiffness which is the slope of elongation versus load graph. The testing system 110 is illustrated in FIG. 4 and consists of a hydrothermy cabin 120 that is attached to a universal testing machine 130, which is used to perform isothermal and isotonic heating of specimens. The hydrothermy cabin 120 provides a chamber which allows fluid to be circulated around all surfaces of specimen 123 held in between lower grip 124 and upper grip 125. Specimen 123 is secured to lower grip 124 using a fixture which is designed to keep specimen 123 at an angle to mimic anatomical loading while compensating for the offset created by the angle so as to ensure a straight line of loading. Specimen 123 is secured to upper grip 125 by a wedge-shaped fixture which is composed of two universal joints to give rotational freedom to specimen 123 to ensure that a purely uniaxial stress is created on specimen 123. The denaturation of the collagen in specimen 123 is produced by providing to hydrothermy cabin 120 high temperature saline solution 150 contained in reservoir 151 by means of high temperature saline solution supply line 152. […] The materials testing machine 130 performs a tensile test wherein a constant rate of eleongation is applied to specimen 123 and the resultant load is measured by a load cell (not shown); a viscoelasticity test wherein a constant load is applied on specimen 123 and the resultant elongation as a function of time is measured (creep test) or a constant elongation is imposed and the resulting load is measured (stress relaxation test) as a function of time. […]

O=CCCCC=O [glutaraldehyde]
stiffness of the specimen (15 minutes of 0.1% glutaraldehyde following heat treatment of either 75° C. or 80° C.): increased
stiffness increase when compared to a control without the cross-linking (heat treatment 75° C., 0.5 MPa load): more than 220%
stiffness increase when compared to a control without the cross-linking (heat treatment 80° C., 0.6 MPa load): more than 130%

— US6375672B1, “Method for controlling the chemical and heat induced responses of collagenous materials” (Board of Trustees of Michigan State University, priority 1999, dated 2002)
